Test results reported in BindingDB's records for patent US20250099442 (Prothena Biosciences, 2025).
pIC50: −log10 of the molar value.

Molecular target: Dual specificity tyrosine-phosphorylation-regulated kinase 1A (Homo sapiens, UniProt Q13627)
Assay: DYRK1A Inhibition Assay
Method: Assay Procedure1. Add 5 μL enzyme & substrate mixture to each well in Column 2-23 and A24-H24 wells of the 384-well assay plate;2. Add 5 μL 0% Phosphorylation control to A1-H1 and I24-P24 wells of the assay plate;3. Add 5 μL 100% Phosphorylation control to I1-P1 wells of the assay plate;4. Spin the assay plate (1000 rpm, 1 minute @23° C.);5. Incubate enzyme with compounds for 15 minutes at 23° C.;6. Add 5 μL ATP solution to each well of the assay plate;7. Spin the plate (1000 rpm, 1 minute @23° C.);8. Incubate the assay plate for 90 minutes at 23° C.;9. Add 10 μL Development reagent A to each well of the assay plate;10. Centrifuge the plate at 1000 rpm about 15 seconds and seal a film over assay plate. Incubate the assay plate for 30 minutes at 23° C.11. Read assay plates on Envision

SMILES	pIC50
CN1CCC(N2CCn3c(nc4ccc(-c5ccncc5)cc43)C2)CC1 [US20250099442, Compound I.49]	7.00 to 8.00
c1cc(-c2ccc3ncn(C4CCCNC4)c3c2)ccn1 (stereo not drawn) [US20250099442, Compound I.19]	7.00 to 8.00
COc1cc(-c2ccc3nc(NC(=O)C4C5CC4CN(C)C5)sc3c2)ccn1 (stereo not drawn) [US20250099442, Compound I.43]	7.00 to 8.00
CC(C)CN1CCC(O)(C#Cc2ccc3c(-c4ccncc4)c[nH]c3n2)CC1 [US20250099442, Compound I.96]	6.00 to 7.00
CC(C)CN1CCC(C(=O)Nc2cc(-c3ccc4nn(C)cc4c3)ccn2)CC1 [US20250099442, Compound I.18]	7.00 to 8.00
CN1C[C@@H]2C(C(=O)Nc3nc4ccc(-c5cccnc5)nc4s3)[C@@H]2C1 (stereo partly drawn) [US20250099442, Compound I.70]	6.00 to 7.00
Cc1cc(-c2cnn3cc(-c4ccc5cnccc5c4)n(C)c(=O)c23)ccn1 [US20250099442, Compound I.80]	6.00 to 7.00
CC(C)CN1CCC(CNc2nccc(-c3cn(C(C)C)c4cnccc34)n2)CC1 [US20250099442, Compound I.9]	6.00 to 7.00
NC(=O)c1ccc(-c2cnc3[nH]cc(C4CCC4)c3c2)cc1 [US20250099442, Compound I.15]	6.00 to 7.00
CS(=O)(=O)N1CCC[C@@H](n2cnc3ccc(-c4ccncc4)cc32)C1 [US20250099442, Compound I.22]	6.00 to 7.00
C[C@@H]1CC(C(=O)Nc2cn3cc(-c4ccncc4)ccc3n2)C[C@H](C)N1 (stereo partly drawn) [US20250099442, Compound I.65]	7.00 to 8.00
CN1CCC(C(=O)Nc2nc3ccc(-c4ccncc4)nc3s2)CC1 [US20250099442, Compound I.51]	> 8.00
O=C(O)c1ccc(-c2cnc3n2CC(=O)N(C2CCOCC2)C3)cc1 [US20250099442, Compound I.81]	< 6.00
c1cc(-c2ccc3c(c2)CCO3)cc(OCC2CCCCN2)n1 (stereo not drawn) [US20250099442, Compound I.36]	6.00 to 7.00
CCOc1cc(-c2ccc3nc(NC(=O)[C@H]4CCCN(C)C4)sc3c2)ccn1 [US20250099442, Compound I.61]	6.00 to 7.00
CN1CCC(C(=O)N2CCn3c(nc4ccc(-c5ccncc5)cc43)C2)CC1 [US20250099442, Compound I.64]	7.00 to 8.00
C(#CC1CCOCC1)c1cc(-c2cn(C3CCOCC3)c3cnccc23)ccn1 [US20250099442, Compound I.92]	> 8.00
O=C(O)c1ccc(-c2cnc3n2CCN(c2cccnc2)C3)cc1 [US20250099442, Compound I.78]	6.00 to 7.00
CN1CCC(Oc2cnc3[nH]cc(-c4cc[nH]c(=O)c4)c3n2)C1 (stereo not drawn) [US20250099442, Compound I.88]	6.00 to 7.00
O=C(Nc1cc2cc(-c3ccncc3)cn2cn1)C1CCOCC1 [US20250099442, Compound I.63]	7.00 to 8.00
CN1CCC(C(=O)Nc2ncc(-c3ccc4ncn(C)c4c3)s2)CC1 [US20250099442, Compound I.102]	7.00 to 8.00
CN1CCC(C(=O)Nc2nc3ccc(-c4ccncc4)cc3s2)CC1 [US20250099442, Compound I.14]	> 8.00
OC1(C#Cc2ccc3c(-c4ccncc4)c[nH]c3n2)CCNCC1 [US20250099442, Compound I.95]	6.00 to 7.00

More lines, now with the values ahead:

pIC50	SMILES
7.00 to 8.00	CC(=O)N1CCC(n2cnc3ccc(-c4ccncc4)cc32)CC1 [US20250099442, Compound I.38]
7.00 to 8.00	CN1CCC(C(=O)Nc2cn3cc(-c4ccncc4)cc3cn2)CC1 [US20250099442, Compound I.59]
6.00 to 7.00	c1cc(-c2ccc3ncsc3c2)c(OC2CCC2)cn1 [US20250099442, Compound I.83]
7.00 to 8.00	CN1CC2C(C1)C2C(=O)Nc1cc2cc(-c3ccncc3)cn2cn1 (stereo not drawn) [US20250099442, Compound I.72]
6.00 to 7.00	c1cc(-c2ccc3nc4n(c3c2)CCNC4)ccn1 [US20250099442, Compound I.48]
6.00 to 7.00	c1cncc(-c2ccc3cncc(OC4CCNC4)c3c2)c1 (stereo not drawn) [US20250099442, Compound I.87]
6.00 to 7.00	c1cc(-c2ccc3ncn(C4CCNCC4)c3c2)ccn1 [US20250099442, Compound I.31]
< 6.00	COc1cccc(-c2nc3cc(NS(C)(=O)=O)cnc3s2)c1 [US20250099442, Compound I.12]
6.00 to 7.00	N#Cc1ccc(S(=O)(=O)N2CCCC(n3cnc4ccc(-c5ccncc5)cc43)C2)cc1 (stereo not drawn) [US20250099442, Compound I.33]
< 6.00	Cn1nc2cnccc2c1-c1ccnc(NC(=O)C2CC2)c1 [US20250099442, Compound I.25]
7.00 to 8.00	Cc1c(-c2ccncc2)cn2cnc(NC(=O)C3C4CNCC43)cc12 (stereo not drawn) [US20250099442, Compound I.74]
< 6.00	c1cc(-c2cnc3[nH]cc(C4CCC4)c3c2)ccn1 [US20250099442, Compound I.16]
> 8.00	CN1CCC(C(=O)Nc2cc(-c3ccc4c(c3)ncn4C)ccn2)CC1 [US20250099442, Compound I.34]
7.00 to 8.00	Cc1cc(-c2cn3ncc(-c4ccc(O)c(C#N)c4)c3c(=O)n2C)ccn1 [US20250099442, Compound I.84]
7.00 to 8.00	O=C(OCc1ccccc1)N1CCC(n2cnc3ccc(-c4ccncc4)cc32)CC1 [US20250099442, Compound I.30]
< 6.00	CN1CCn2c(nc3ccc(-c4ccncc4)cc32)C1 [US20250099442, Compound I.50]
7.00 to 8.00	COc1cc(-c2ccnc(NC(=O)C3CCN(C)CC3)c2)cc2cnccc12 [US20250099442, Compound I.60]
7.00 to 8.00	CCCOc1cc(COC2CCN(C)CC2)nc2[nH]cc(-c3ccncc3)c12 [US20250099442, Compound I.85]
< 6.00	Fc1ccc(COc2cc(-c3ccc4c(c3)CCO4)ccn2)cc1F [US20250099442, Compound I.35]
> 8.00	COc1cc(-c2ccc3nc(NC(=O)c4cccc(C#N)c4)sc3n2)ccn1 [US20250099442, Compound I.71]
7.00 to 8.00	COc1cc(-c2ccc3nc(NC(=O)C4CN(C)C4)sc3c2)ccn1 [US20250099442, Compound I.46]
7.00 to 8.00	CCN1CCC(C(=O)Nc2cc(-c3ccc4ncn(C(F)F)c4c3)ccn2)CC1 [US20250099442, Compound I.93]
7.00 to 8.00	CN1CC(C(=O)Nc2nc3ccc(-c4ccncc4)cc3s2)C1 [US20250099442, Compound I.45]
6.00 to 7.00	c1cc(Cc2cnc3ccc(-c4ccncc4)cn23)c2cn[nH]c2c1 [US20250099442, Compound I.28]
6.00 to 7.00	CC(=O)N1CCCC(n2cnc3ccc(-c4ccncc4)cc32)C1 (stereo not drawn) [US20250099442, Compound I.23]
7.00 to 8.00	CC(C)CN1CCC(C(=O)Nc2cc(-c3ccc4c(cnn4C)c3)ccn2)CC1 [US20250099442, Compound I.17]
7.00 to 8.00	CS(=O)(=O)N1CCC(n2cnc3ccc(-c4ccncc4)cc32)CC1 [US20250099442, Compound I.32]
< 6.00	COc1ccc(CN2Cc3ncc(-c4ccc(C#N)cc4)n3CC2=O)cc1 [US20250099442, Compound I.82]
> 8.00	CC(C)CN1CCC(C(=O)Nc2cc(-c3c[nH]c4cnccc34)ccn2)CC1 [US20250099442, Compound I.3]
> 8.00	CN1CCC(C(=O)Nc2cn3cc(-c4ccncc4)ccc3n2)CC1 [US20250099442, Compound I.42]
